Converted amounts (≈) assume the structure as drawn. Where two headings read alike, the source gives them in different places. No end group written: not given here.
Key:
[1] = system: Pseudomonas aeruginosa ATCC 9027; assay: Antimicrobial assay I, MIC by OD measurement; format: cell-based
Text: (§1) The data for the following antimicrobial assay of the peptides have been obtained by making OD measurements in in vitro cell culture experiments with and without added peptide. The protocol used is as follows.
(§2) Cell lines included Staphylococcus aureus ATCC 6538 or 25923, Pseudomonas aeruginosa ATCC 9027 or 27853. Medium used were Antibiotic Medium 3 (Difco), Antibiotic Medium 2 (Difco), and 0.85% saline. Controls used were physiological saline, and gentamycin at 50, 25, 10, 5, 1, and 0.1 ppm.
(§3) Absorbance was read at 620 nm after shaking to resuspend cells.
(§4) Staph6538 is Staphylococcus aureus ATCC accession number 6538; paerug9027 is Pseudomonas aeruginosa ATCC accession number 9027, yeast is Saccharomyces cerevisiae.

in vitro [2] = format: cell-based, human; settings: human, human red blood cells
WI38 = settings: Table 27
in vitro [3] = settings: human, WI38 normal lung fibroblast cells
[4] = system: Escherichia coli ATCC 25922; assay: Antimicrobial assay I, modified protocol (tryptic soy broth), MBC; settings: minimum bactericidal concentration, Table 4
Experimental: (§6) The preparation of all media, stock solutions, and dilutions took place in a laminar flow hood to prevent contamination. Bacterial cells were freshly grown on antibiotic medium 2 agar slants (pH 7.0 at 25° C.). Bacteria were suspended and diluted in antibiotic medium 3 to about 10^4 cfu/ml and used as the inoculum. Sample solutions (100 μl/well) were added to plates according to the plate layout. Inoculum (100 μl/well) was added to achieve a final concentration of 5×10^3 cfu/ml. Negative controls received 100 μl saline and 100 μl growth medium. Positive controls received 100 μl saline and 100 μl inoculum. Bacterial plates were incubated at 37° C. for 24 hours.
(§7) However, the data for Table 4 were obtained with a modified protocol wherein the medium was tryptic soy broth, inocolum strength was approximately 10^4 CFU per ml, and values determined were minimum bactericidal concentrations (MBC) or minimum fungicidal concentrations (MFC).
(§8) MBC or MFC values are in μg/mL. E. coli is Escherichia coli ATCC accession number 25922; P. aerug is Pseudomonas aeruginosa ATCC accession number 27853, S. aur. is Stapholococcus aureus ATCC accession number 25923; Candida is Candida albicans ATCC accession number 10231.

[5] = system: Pseudomonas aeruginosa ATCC 27853; assay: as above; settings: minimum bactericidal concentration, Table 4
[6] = system: Stapholococcus aureus ATCC 25923; assay: as above; settings: minimum bactericidal concentration, Table 4
Experimental: as §6, §7, §8

[7] = system: Candida albicans ATCC 10231; assay: Antimicrobial assay I, modified protocol (tryptic soy broth), MFC; settings: minimum fungicidal concentration, Table 4
[8] = system: human red blood cells (RBC); assay: in vitro; format: cell-based; settings: hemolytic assay, concentration at 50% hemolysis, 1 hour at 37° C.
E. coli UB1005 = format: cell-based, Escherichia coli; settings: mean of three; 16 to 20 hours at 35° C.; in µg/mL
S. typhimurium 14028S = format: cell-based, Salmonella typhimurium; settings: mean of three; 16 to 20 hours at 35° C.; in µg/mL
P. aeruginosa H374 = format: cell-based, Pseudomonas aeruginosa; settings: mean of three; 16 to 20 hours at 35° C.
BMKC = assay: Anti-cancer assay, MTT, LD50; format: cell-based; settings: BMKC cloned melanoma line, 24 hours with peptide
Text: (§5) Numbers are LD50 values (μg/mL).

MCF7 = assay: Anti-cancer assay, MTT, LD50; format: cell-based; settings: MCF7 breast adenocarcinoma line, MTT, 24 hours with peptide
Text: as §5

SW480 = assay: Anti-cancer assay, MTT, LD50; format: cell-based; settings: SW480 colon adenocarcinoma line, 24 hours with peptide
Text: as §5

H1299 = assay: Anti-cancer assay, MTT, LD50; format: cell-based; settings: 24 hours with peptide, lung large cell carcinoma
Text: as §5

HeLaS3 = assay: Anti-cancer assay, MTT, LD50; format: cell-based; settings: 24 hours with peptide, cervical carcinoma
Text: as §5

PC3 = assay: Anti-cancer assay, MTT, LD50; format: cell-based; settings: 24 hours with peptide, prostate adenocarcinoma
Text: as §5

[9] = system: Staphylococcus aureus ATCC 6538; assay: Antimicrobial assay I, MIC by OD measurement; format: cell-based; settings: 37° C. for 24 hours, absorbance 620 nm
Text: as §1, §2, §3, §4

[10] = system: yeast (Saccharomyces cerevisiae); assay: Antimicrobial assay I, yeast assay in RPMI 1640; format: cell-based; settings: RPMI 1640 media
Experimental: as §1, §3
The yeast assay was performed in RPMI 1640 media (pH 7.0 at 25° C.).
as §4

[11] = pH 7, Table 26, valine substitution, read-out: Hemolysis RBC LD50
[12] = WI-38 LD50, Table 26, valine substitution

Compound | HC50 at 1 h (in vitro [2]; [11]) [µg/mL] | CC50 at 24 h (in vitro [3]; [12]) [mg/L] | MBC E. coli A.25922 [4] [mg/L] | MBC P. aerug A.27853 [5] [mg/L] | MBC S. aur A.25923 [6] [mg/L] | MFC Candida A.10231 [7] [mg/L] | LD50 [8] | further results
CC(C)C[C@H](NC(=O)[C@H](C)NC(=O)[C@H](CC(C)C)NC(=O)[C@H](CCCCN)NC(=O)[C@H](C)NC(=O)[C@H](CC(C)C)NC(=O)[C@H](CCCCN)NC(=O)[C@H](CCCCN)NC(=O)[C@H](C)NC(=O)[C@H](CC(C)C)NC(=O)[C@H](CCCCN)NC(=O)[C@H](C)NC(=O)[C@H](CC(C)C)NC(=O)[C@H](CCCCN)NC(=O)[C@H](CCCCN)NC(=O)[C@H](C)NC(=O)[C@@H](N)Cc1ccccc1)C(N)=O [compound 35] | 150 | 25 (≈ 13.5 µM) | 8 (≈ 4.31 µM) | 8 (≈ 4.31 µM) | 10 (≈ 5.39 µM) | >40 | – | P. aerug (MIC) [1]: 200 mg/L; HC50 at 1 h (in vitro [2]; pH 7, Table 27, read-out: Hemolysis (LD50)): 100 µg/mL; WI38 LD50 (WI38): 25 µg/mL
FAKKLAKKLKKLAKKLAK-OH [Shiva 10(1-18_AC] | – | – | – | – | – | – | > (> indicates greater than 1000) | –
FAKKLAKKLKKLAKLALAL-OH [P29] | – | – | – | – | – | – | – | E. coli UB1005 MIC (E. coli UB1005): 8; S. typhimurium 14028S MIC (S. typhimurium 14028S): 8; P. aeruginosa H374 MIC (P. aeruginosa H374): 16 mg/L; LD50 BMKC (BMKC): 300 µg/mL; LD50 MCF7 (MCF7): 140 µg/mL; LD50 SW480 (SW480): 210 µg/mL; HC50 at 1 h (in vitro [2]; pH 7, hemolytic assay, concentration at 50% hemolysis, 1 hour at 37° C., read-out: LD50): 250 µg/mL; CC50 at 24 h (in vitro [3]; LD50 WI38, WI38 normal lung fibroblast line, MTT, 24 hours with peptide): 520 mg/L
FAKLLAKLAKKAA-NH2 [P93] | – | – | – | – | – | – | > (> indicates greater than 1000) | H1299 LD50 (H1299): 320 µg/mL; HeLaS3 LD50 (HeLaS3): > (> indicates greater than 1000); PC3 LD50 (PC3): 690 µg/mL; CC50 at 24 h (in vitro [3]; WI38 LD50, MTT, 24 hours with peptide, normal fibroblast line): 530 mg/L
FALALKALKKA-NH2 [P176] | – | – | – | – | – | – | > (> indicates greater than 1000) | paerug9027 (MIC) ([1]; 37° C. for 24 hours, absorbance 620 nm): > (> indicates greater than 200 μg/mL); staph6538 (MIC) [9]: > (> indicates greater than 200 μg/mL); yeast (MIC or MFC) [10]: > (> indicates greater than 200 μg/mL)
FALALKALKKLAKKLKKLAKKAL-NH2 [compound 25] | 16 | 24 | 40 | 30 | 40 | >50 | – | –
FALALKALKKLLKKLKKLAKKAL-NH2 [compound 24] | 10 | 55 | >80 | 30 | >40 | >50 | – | –

— patent US20050209157A1, “Short bioactive peptides and methods for their use” (priority 2001, published 2005)
